Conditions: for log10 BCF / log10 biotransformation half-life (days): fish

| Structure (SMILES) | melting point | boiling point | also measured |
| --- | --- | --- | --- |
| C[C@H](NC(=O)COC(=O)c1ccccc1)C(N)=O | 202 °C | – | – |
| N[C@@H](CSCC(=O)O)C(=O)O | 206 °C | – | – |
| CCC(C)(O)CCCC(C)C (configuration not stated) | 31.5 °C | 196 °C | – |
| CCOc1ccc(C(C)(C)COCc2cccc(Oc3ccccc3)c2)cc1 | 37 °C | – | – |
| CCCCCCCCCCCCCCCCCCCCCl | – | – | log10 vapour pressure (mmHg): -5.62 |
| O=C(O)c1cnc[nH]1 | – | 294 °C | – |
| CCCC(c1ccc(O)cc1)c1ccc(O)cc1 | 137 °C | – | – |
| CCOP(=S)(OCC)SC1OCCOC1SP(=S)(OCC)OCC (configuration not stated) | -20 °C | – | – |
| CCCCCCCCCCCCC1=C(OC(C)=O)C(=O)c2ccccc2C1=O | 59.6 °C | – | – |
| COc1ccc(NC(=O)N(C)C)cc1 | – | – | log10 Koc (L/kg): 1.4 |
| C1CNC1 | – | 63 °C | log10 vapour pressure (mmHg): 2.25 |
| Oc1ccc2c(c1)[nH]c1ccccc12 | 272 °C | – | – |
| C=CC(Cl)(Cl)Cl | -30 °C | 114 °C | – |
| Brc1ccccc1 | -30.6 °C | 156 °C | log10 Henry constant (atm·m³/mol): -2.61; log10 Koc (L/kg): 2.49; log10 vapour pressure (mmHg): 0.621; ready biodegradability: not readily biodegradable; log10 BCF: 1.36; log10 biotransformation half-life (days): -1.19 |
| CC(C)CC1Nc2cc(Cl)c(S(N)(=O)=O)cc2S(=O)(=O)N1 (configuration not stated) | 222 °C | – | – |
| CC(C)(C)[C@H](O)/C(=C\c1ccc(Cl)cc1)n1cncn1 | 153 °C | – | – |
| C1CSC1 | -73.2 °C | 95 °C | log10 vapour pressure (mmHg): 1.72 |
| COCC(C)=O | – | 116 °C | – |
| Cc1cc(Cl)c2ccccc2n1 | 42.5 °C | 270 °C | – |
| Clc1ccc(Cl)nn1 | 67.5 °C | – | – |
| FC(F)(F)c1cccc(C(F)(F)F)c1 | – | 116 °C | ready biodegradability: not readily biodegradable |
| CCC(=O)CC(=O)CC | – | – | ready biodegradability: readily biodegradable |
| CCOC(OCC)N(C)C | – | 129 °C | – |

| Structure (SMILES) | melting point | boiling point | also measured |
| --- | --- | --- | --- |
| CCCC(=O)Oc1ccccc1 | – | 225 °C | – |
| O=C1CCCCCCN1 | 36.5 °C | – | – |
| NC(=O)NCc1ccccc1 | 148 °C | – | – |
| C=CCCCCC | -120 °C | 93.6 °C | log10 vapour pressure (mmHg): 1.77 |
| CCC(c1ccc2cc(OC)ccc2c1)C(C)(C)C(=O)O (configuration not stated) | 140 °C | – | – |
| CC(=O)OC[C@H]([C@H](OC(C)=O)c1ccccc1)[N+](=O)[O-] | 70 °C | – | – |
| BrCCCCCCCCCCCCBr | 41 °C | – | – |
| O=C(O)CCCCBr | 39 °C | – | – |
| CCCCCC[N+](=O)[O-] | – | 193 °C | – |
| CC(C)c1ccccc1O | 15.5 °C | 214 °C | log10 vapour pressure (mmHg): -1 |
| Fc1ccc(N=C=S)cc1 | 27 °C | 228 °C | – |
| c1ccc2c(c1)ccc1nc3c(ccc4ccccc43)cc12 | 226 °C | – | log10 BCF: 2.03; log10 biotransformation half-life (days): -0.14 |
| CC1(C)OC(=O)CC(=O)O1 | 94 °C | – | – |
| O=C1OC(=O)c2ccccc21 | 131 °C | 295 °C | log10 Koc (L/kg): 1.56; log10 vapour pressure (mmHg): -3.29; ready biodegradability: readily biodegradable |
| O=[N+]([O-])c1ccc(N=Nc2ccccc2)cc1 | 133 °C | – | log10 vapour pressure (mmHg): -5.93 |
| O=S(=O)(c1ccccc1)c1ccccc1 | 128 °C | 279 °C | – |
| Oc1cccc(Cl)c1Cl | 58 °C | 206 °C | log10 Koc (L/kg): 2.66; log10 vapour pressure (mmHg): -1.24; ready biodegradability: not readily biodegradable; log10 BCF: 1.13 |
| COC(=O)c1c[nH]c2ccccc12 | 150 °C | – | – |
| CNC(=O)Oc1ccc2c(c1)[C@]1(C)CCN(C)OC1N2C (some centres not stated) | 129 °C | – | – |
| CC(C)CCCCCCOC(=O)c1ccccc1C(=O)OCCCCCCC(C)C | – | – | ready biodegradability: readily biodegradable |
| O=C(Oc1ccc2ccccc2c1)c1ccccc1 | 107 °C | – | – |
| CCCCCCOC(=O)CCCCC | -55 °C | 246 °C | – |
| CC1CC1(C)C (configuration not stated) | -138 °C | 54 °C | – |

| Structure (SMILES) | melting point | boiling point | also measured |
| --- | --- | --- | --- |
| Cc1cc(C)nc(Nc2ccccc2)n1 | 96.3 °C | – | log10 vapour pressure (mmHg): -4.78 |
| Brc1cccc(I)c1 | -9.3 °C | 252 °C | – |
| C=C(C)CCC | – | 62.1 °C | log10 vapour pressure (mmHg): 2.29 |
| FC1(F)C(Cl)=C(Cl)C(F)(F)C1(F)F | -106 °C | 90.7 °C | – |
| Cl[Si](Cl)(Cl)c1ccccc1 | – | 201 °C | log10 vapour pressure (mmHg): -0.371 |
| CC(C)=CCC/C(C)=C/C=C/C(C)=C/C=C/C(C)=C/C=C/C=C(C)/C=C/C=C(C)/C=C/C=C(\C)CCC=C(C)C | 175 °C | – | – |
| C=C(C)CCCCCCCCC | – | – | log10 biotransformation half-life (days): 0.17 |
| C=CCC1(C(C)CCC)C(=O)NC(=S)NC1=O (configuration not stated) | 132 °C | – | – |
| O=c1oc(=O)c2cc3c(=O)oc(=O)c3cc12 | – | – | ready biodegradability: readily biodegradable |
| c1ccc2c(c1)Sc1ccccc1N2CC1CN2CCC1CC2 (configuration not stated) | 130 °C | – | – |
| C=C1[C@H]2CC[C@@H]3[C@H]2C(C)(C)CCC[C@]13C | – | 258 °C | – |
| c1coc(CNc2[nH]cnc3ncnc2-3)c1 | 266 °C | – | – |
| Cc1cccc(Cl)c1Cl | 6 °C | 208 °C | – |
| Cc1ccccc1N=C=O | – | 185 °C | – |
| BrC1CCCCC1 | -56.5 °C | 166 °C | – |
| CC(C)c1ccncc1 | -54.9 °C | 178 °C | – |
| C=CCCCCCCCCC(=O)OC | -27.5 °C | 248 °C | – |
| C=CCC1(CC(C)C)C(=O)NC(=O)NC1=O | 138 °C | – | – |
| C[C@]12CC[C@H]3[C@@H](CCC4=CC(=O)CC[C@@H]43)[C@@H]1CC[C@@H]2OC(=O)CCc1ccccc1 | 95.5 °C | – | – |
| O=C(c1cccs1)c1cccs1 | 90 °C | 326 °C | – |
| OC(O)C(Br)(Br)Br | 53.5 °C | – | – |
| CS(=O)(=O)c1c(F)c(F)c(F)c(F)c1F | – | – | log10 Koc (L/kg): 1.46 |
| CCCN(CC)CC1COC2(CCC(C(C)(C)C)CC2)O1 (configuration not stated) | – | – | log10 vapour pressure (mmHg): -3.89 |

| Structure (SMILES) | melting point | boiling point | also measured |
| --- | --- | --- | --- |
| COc1cc(CCN)cc(OC)c1OC | 35.5 °C | – | – |
| O=C(O)c1ccc2c(c1)C(=O)c1ccccc1C2=O | 291 °C | – | – |
| CCCCCC1CCCCC1 | -57.5 °C | 204 °C | log10 vapour pressure (mmHg): -0.429 |
| Clc1ccc(Cl)c(-c2ccccc2)c1 | – | – | log10 Henry constant (atm·m³/mol): -3.55; log10 vapour pressure (mmHg): -2.86; log10 BCF: 3.98; log10 biotransformation half-life (days): 2.38 |
| Oc1ccc2c3c1O[C@H]1[C@@H](O)C=C[C@H]4[C@H](C2)NCC[C@@]341 | 273 °C | – | – |
| O=C(O)Cc1ccc(F)cc1 | 86 °C | – | – |
| O=C(O)C=Cc1ccc(Cl)cc1 | 249 °C | – | – |
| O=C1c2ccccc2C(=O)C1c1ccc(Br)cc1 | 138 °C | – | – |
| CCCC(C)C(C)C (configuration not stated) | – | 116 °C | log10 biodegradation half-life (days): 1.42; log10 vapour pressure (mmHg): 1.37 |
| Nc1cccc(N)c1N | 103 °C | 336 °C | – |
| O=C(O)c1cc(Cl)c(Cl)cc1Cl | 166 °C | – | – |
| CNC(=O)Oc1cc(C)cc(C(C)C)c1 | 87 °C | – | log10 Koc (L/kg): 2.48; log10 vapour pressure (mmHg): -4.52 |
| NC=S | 26.5 °C | – | – |
| ClC(Cl)=C(Cl)C(Cl)Cl | – | 185 °C | – |
| S=c1sccs1 | 49 °C | – | – |
| CCOC(=O)Cc1c[nH]c2ccccc12 | 44.5 °C | – | – |
| O=C1OC(=Cc2ccccc2)c2ccccc21 | 100 °C | – | – |
| Cc1cc(Cl)c(Cl)c(Cl)c1 | 45.5 °C | 246 °C | – |
| FC(F)(F)C#CC(F)(F)F | -117 °C | -24.6 °C | – |
| CC(CCC(=O)O)(c1ccc(O)cc1)c1ccc(O)cc1 | 172 °C | – | – |
| O=C1C(Cl)C(CCl)CN1c1cccc(C(F)(F)F)c1 (configuration not stated) | 67.7 °C | – | log10 vapour pressure (mmHg): -5.48 |

— the OPERA property sets (Mansouri et al. 2018)
